Columns and labels:
Phakopsora pachyrhizi = Phakopsora pachyrhizi / soybean / leaf disc preventative (Asian soybean rust); assay type: in vivo; conditions: foliar, 200 ppm in the applied formulation, soybean leaf disks, compared to untreated, read-out: disease control
Summary of the method: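 Read-out is percent disease control relative to untreated check discs, assessed once untreated discs show adequate disease, 12 to 14 days after application. Compounds, tested at 200 ppm in the applied formulation, are sprayed onto soybean leaf discs one day before inoculation with a spore suspension.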

Uromyces viciae-fabae = Uromyces viciae-fabae / field bean / leaf disc preventative (faba-bean rust); assay type: in vivo; conditions: foliar, 288 h, 100 ppm in the applied formulation, field bean leaf discs, compared to untreated, read-out: disease control
Procedure: Leaf disks or leaf segments of various plant species are cut from plants grown in a greenhouse. The cut leaf disks or segments are placed in multiwell plates (24-well format) onto water agar. The leaf disks are sprayed with a test solution before (preventative) or after (curative) inoculation. Compounds to be tested are prepared as DMSO solutions (max. 10 mg/ml) which are diluted to the appropriate concentration with 0.025% Tween20 just before spraying. The inoculated leaf disks or segments are incubated under defined conditions (temperature, relative humidity, light, etc.) according to the respective test system. A single evaluation of disease level is carried out 3 to 14 days after inoculation, depending on the pathosystem. Percent disease control relative to the untreated check leaf disks or segments is then calculated. Field bean leaf discs are placed on water agar in multiwell plates (96-well format) and 10 μl of the formulated test compound diluted in acetone and a spreader pipetted onto the leaf disc. Two hours after application leaf discs are inoculated by spraying a spore suspension on the lower leaf surface. The leaf discs are incubated in a climate cabinet at 22° C. with 18 hour light/day and 70% relative humidity. The activity of a compound is assessed as percent disease control compared to untreated when an appropriate level of disease damage appears in untreated check leaf disks (12 days after application). The following compounds at 100 ppm in the applied formulation give at least 80% disease control in this test when compared to untreated control leaf discs under the same conditions, which show extensive disease development.

[1] = test system: Puccinia recondita f. Sp. Tritici; assay: Puccinia recondita f. sp. tritici / wheat / leaf disc curative (brown rust); assay type: in vivo; conditions: foliar, 24 h, 200 ppm in the applied formulation, wheat leaf segments cv. Kanzler, curative (applied 1 day after inoculation), compared to untreated, read-out: disease control
Summary of the method: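 Curative leaf-segment test, cv. Kanzler: spore inoculation, dark storage 19° C/75% RH, compound spray 1 day post-inoculation. Then 12 h light/12 h dark, 19° C, 75% RH. Read-out: % disease control vs untreated check, 6–8 d after application.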

[2] = test system: Puccinia recondita f. Sp. Tritici; assay: Puccinia recondita f. sp. tritici / wheat / leaf disc preventative (brown rust); assay type: in vivo; conditions: foliar, 200 ppm in the applied formulation, wheat leaf segments cv. Kanzler, preventative (inoculated 1 day after application), compared to untreated, read-out: disease control
Summary of the method: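 Preventative leaf-segment test, cv. Kanzler on agar: spray compound, inoculate with spore suspension 1 d post-application, hold at 19° C./75% rh, 12 h/12 h light cycle. Read-out = % disease control vs untreated check at 7–9 d; 200 ppm in applied formulation.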

[3] = test system: Glomerella lacenarium (Colletotrichum lagenarium); assay: Glomerella lagenarium liquid culture / cucumber / preventative (anthracnose); assay type: cell-based; conditions: Colletotrichum orbiculare; 20 ppm in the applied formulation; liquid culture (PDB), growth inhibition measured photometrically 3 to 4 days after application; compared to untreated; read-out: disease control
Summary of the method: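 Conidia from cryogenic storage were mixed into potato dextrose broth. This was added to compound diluted from DMSO into 0.025% Tween20, tested at 20 ppm. Plates were incubated in the dark at 24 °C and 96% relative humidity, and growth was read photometrically after 2–7 days as % activity versus untreated check.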

Structure (SMILES): CCC(COC)C(=O)NCc1ccc(-c2noc(C(F)(F)F)n2)cc1 (centres unmarked) [Compound 1.19, 2-(methoxymethyl)-N-[[4-[5-(trifluoromethyl)-1,2,4-oxadiazol-3-yl]phenyl]methyl]butanamide]
- pest or weed control at 200 ppm (Phakopsora pachyrhizi): ≥ 80%
- pest or weed control at 100 ppm (Uromyces viciae-fabae): ≥ 80%
- pest or weed control at 200 ppm [1]: ≥ 80%
- pest or weed control at 200 ppm [2]: ≥ 80%
- inhibition of growth at 20 ppm [3]: ≥ 80%

Structure (SMILES): C#CCCC(=O)NCc1ccc(-c2noc(C(F)(F)F)n2)cc1 [Compound 1.5, N-[[4-[5-(trifluoromethyl)-1,2,4-oxadiazol-3-yl]phenyl]methyl]pent-4-ynamide]
- pest or weed control at 200 ppm (Phakopsora pachyrhizi): ≥ 80%
- pest or weed control at 100 ppm (Uromyces viciae-fabae): ≥ 80%
- pest or weed control at 200 ppm [1]: ≥ 80%
- pest or weed control at 200 ppm [2]: ≥ 80%
- inhibition of growth at 20 ppm [3]: ≥ 80%

Structure (SMILES): COC(C)C(=O)NCc1ccc(-c2noc(C(F)(F)F)n2)cc1 (centres unmarked) [Compound 1.23, 2-methoxy-N-[[4-[5-(trifluoromethyl)-1,2,4-oxadiazol-3-yl]phenyl]methyl]propanamide]
- melting point: 94 to 100 °C
- pest or weed control at 200 ppm (Phakopsora pachyrhizi): ≥ 80%
- pest or weed control at 100 ppm (Uromyces viciae-fabae): ≥ 80%
- pest or weed control at 200 ppm [1]: ≥ 80%
- pest or weed control at 200 ppm [2]: ≥ 80%
- inhibition of growth at 20 ppm [3]: ≥ 80%

Structure (SMILES): CC(C)(CCl)C(=O)NCc1ccc(-c2noc(C(F)(F)F)n2)cc1 [Compound 1.13, 3-chloro-2,2-dimethyl-N-[[4-[5-(trifluoromethyl)-1,2,4-oxadiazol-3-yl]phenyl]methyl]propanamide]
- pest or weed control at 200 ppm (Phakopsora pachyrhizi): ≥ 80%
- pest or weed control at 100 ppm (Uromyces viciae-fabae): ≥ 80%
- pest or weed control at 200 ppm [1]: ≥ 80%
- pest or weed control at 200 ppm [2]: ≥ 80%
- inhibition of growth at 20 ppm [3]: ≥ 80%

Structure (SMILES): N#CCC(=O)NCc1ccc(-c2noc(C(F)(F)F)n2)cc1 [Compound 1.22, 2-cyano-N-[[4-[5-(trifluoromethyl)-1,2,4-oxadiazol-3-yl]phenyl]methyl]acetamide]
- pest or weed control at 200 ppm (Phakopsora pachyrhizi): ≥ 80%
- pest or weed control at 100 ppm (Uromyces viciae-fabae): ≥ 80%
- pest or weed control at 200 ppm [1]: ≥ 80%
- pest or weed control at 200 ppm [2]: ≥ 80%

Structure (SMILES): C=C(C)C(=O)NCc1ccc(-c2noc(C(F)(F)F)n2)cc1 [Compound 1.16, 2-methyl-N-[[4-[5-(trifluoromethyl)-1,2,4-oxadiazol-3-yl]phenyl]methyl]prop-2-enamide]
- pest or weed control at 200 ppm (Phakopsora pachyrhizi): ≥ 80%
- pest or weed control at 100 ppm (Uromyces viciae-fabae): ≥ 80%
- pest or weed control at 200 ppm [2]: ≥ 80%
- inhibition of growth at 20 ppm [3]: ≥ 80%

Structure (SMILES): COCCC(=O)NCc1ccc(-c2noc(C(F)(F)F)n2)cc1 [Compound 1.11, 3-methoxy-N-[[4-[5-(trifluoromethyl)-1,2,4-oxadiazol-3-yl]phenyl]methyl]propanamide]
- pest or weed control at 200 ppm (Phakopsora pachyrhizi): ≥ 80%
- pest or weed control at 100 ppm (Uromyces viciae-fabae): ≥ 80%
- pest or weed control at 200 ppm [2]: ≥ 80%
- inhibition of growth at 20 ppm [3]: ≥ 80%

Structure (SMILES): C#CC(C)(C)C(=O)NCc1ccc(-c2noc(C(F)(F)F)n2)cc1 [Compound 1.3, 2,2-dimethyl-N-[[4-[5-(trifluoromethyl)-1,2,4-oxadiazol-3-yl]phenyl]methyl]but-3-ynamide]
- melting point: 55 to 60 °C
- pest or weed control at 200 ppm (Phakopsora pachyrhizi): ≥ 80%
- pest or weed control at 100 ppm (Uromyces viciae-fabae): ≥ 80%
- pest or weed control at 200 ppm [1]: ≥ 80%
- pest or weed control at 200 ppm [2]: ≥ 80%
- inhibition of growth at 20 ppm [3]: ≥ 80%

Structure (SMILES): CC(C)(C)C(=O)NCc1ccc(-c2noc(C(F)(F)F)n2)cc1 [Compound 1.2, 2,2-dimethyl-N-[[4-[5-(trifluoromethyl)-1,2,4-oxadiazol-3-yl]phenyl]methyl]propanamide]
- melting point: 120 to 127 °C
- pest or weed control at 200 ppm (Phakopsora pachyrhizi): ≥ 80%
- pest or weed control at 100 ppm (Uromyces viciae-fabae): ≥ 80%
- pest or weed control at 200 ppm [1]: ≥ 80%
- pest or weed control at 200 ppm [2]: ≥ 80%
- inhibition of growth at 20 ppm [3]: ≥ 80%

Structure (SMILES): CCC(=O)NCc1ccc(-c2noc(C(F)(F)F)n2)cc1 [Compound 1.1, N-[[4-[5-(trifluoromethyl)-1,2,4-oxadiazol-3-yl]phenyl]methyl]propanamide]
- pest or weed control at 200 ppm (Phakopsora pachyrhizi): ≥ 80%
- pest or weed control at 100 ppm (Uromyces viciae-fabae): ≥ 80%
- pest or weed control at 200 ppm [1]: ≥ 80%
- pest or weed control at 200 ppm [2]: ≥ 80%
- inhibition of growth at 20 ppm [3]: ≥ 80%

Reference: patent US10501425B2, “Microbiocidal oxadiazole derivatives” (SYNGENTA PARTICIPATIONS AG, priority 2015, dated 2019)
